Measured values as given in article PMC5408782, “Engineering bacterial thiosulfate and tetrathionate sensors for detecting gut inflammation” (Molecular Systems Biology, 2017).

What was measured:
[1] = target: T1, ThsSR (ThsS/R; Shal_3128/9) (Shewanella halifaxensis, UniProt B0TQ83); test: sfGFP reporter, flow cytometry, repression transfer function; type: cell-based; conditions: read-out: half-maximal inhibition
T1 construct: E. coli codon-optimised ThsS (pKD182, IPTG-inducible) and ThsR (pKD184, aTc-inducible) in E. coli BW28357; PphsA342-sfGFP reporter; membrane histidine kinase with PhnD-like periplasmic sensor domain; with Thiosulfate response regulator ThsR
T1 sequence (B0TQ83 1-594): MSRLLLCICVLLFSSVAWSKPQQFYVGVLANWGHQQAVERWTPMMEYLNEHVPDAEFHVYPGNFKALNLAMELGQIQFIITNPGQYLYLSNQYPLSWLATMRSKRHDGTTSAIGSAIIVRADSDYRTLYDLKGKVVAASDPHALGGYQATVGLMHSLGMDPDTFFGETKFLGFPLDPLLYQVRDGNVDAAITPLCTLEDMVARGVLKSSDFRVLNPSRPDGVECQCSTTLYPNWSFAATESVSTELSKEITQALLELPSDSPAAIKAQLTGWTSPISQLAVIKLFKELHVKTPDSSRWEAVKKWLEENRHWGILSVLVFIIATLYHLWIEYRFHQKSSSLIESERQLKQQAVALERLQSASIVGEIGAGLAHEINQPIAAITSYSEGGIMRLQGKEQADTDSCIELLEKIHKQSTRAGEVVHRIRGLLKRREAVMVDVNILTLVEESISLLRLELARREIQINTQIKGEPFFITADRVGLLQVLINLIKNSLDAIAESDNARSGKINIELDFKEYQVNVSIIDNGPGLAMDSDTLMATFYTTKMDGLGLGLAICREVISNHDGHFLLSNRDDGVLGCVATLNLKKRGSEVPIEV

[2] = test system: T2, S. baltica TtrSR (Sbal195_3859/8); test: sfGFP reporter, flow cytometry, Hill fit; type: cell-based, Shewanella baltica; conditions: E. coli BW28357, aerobic, M9 + glycerol, 37°C, 10 μM IPTG; PttrB185-269 reporter; activation; read-out: k 1/2
T2 construct: gene ttrS; E. coli codon-optimised TtrS (pKD227, IPTG-inducible) and TtrR (pKD226, aTc-inducible) in E. coli BW28357; PttrB185-269-sfGFP reporter; with Tetrathionate response regulator TtrR

[3] = target: T1, ThsSR (ThsS/R; Shal_3128/9); test: sfGFP reporter, flow cytometry, Hill fit; type: cell-based; conditions: read-out: k 1/2

| IC50 [1] | EC50 [2] | EC50 [3] | SMILES |
| --- | --- | --- | --- |
| 550 ± 20 µM | 50 ± 3 µM |  | O=S(=O)(O)SSS(=O)(=O)O [tetrathionate] |
|  |  | 280 ± 10 µM | O=S(O)(O)=S [thiosulfate] |
| 390 ± 10 µM |  |  | O=S(O)O [sulfite] |
